Values quoted from earlier work, collected in US20230149295A1, “INFLAMMATORY BOWEL DISEASE STEM CELLS, AGENTS WHICH TARGET IBD STEM CELLS, AND USES RELATED THERETO” (University of Houston System, priority 2020, published 2023).
pIC50: −log10 of the molar value.

How the values were obtained:
[1] = target: STAT3 (Homo sapiens, UniProt P40763); settings: cell-free assays; read-out: IC50 for inhibition of STAT3 activation and nuclear translocation
[2] = target: T1, STAT1 (Homo sapiens, UniProt P42224); settings: cell-free assays
T1 sequence (P42224 1-750): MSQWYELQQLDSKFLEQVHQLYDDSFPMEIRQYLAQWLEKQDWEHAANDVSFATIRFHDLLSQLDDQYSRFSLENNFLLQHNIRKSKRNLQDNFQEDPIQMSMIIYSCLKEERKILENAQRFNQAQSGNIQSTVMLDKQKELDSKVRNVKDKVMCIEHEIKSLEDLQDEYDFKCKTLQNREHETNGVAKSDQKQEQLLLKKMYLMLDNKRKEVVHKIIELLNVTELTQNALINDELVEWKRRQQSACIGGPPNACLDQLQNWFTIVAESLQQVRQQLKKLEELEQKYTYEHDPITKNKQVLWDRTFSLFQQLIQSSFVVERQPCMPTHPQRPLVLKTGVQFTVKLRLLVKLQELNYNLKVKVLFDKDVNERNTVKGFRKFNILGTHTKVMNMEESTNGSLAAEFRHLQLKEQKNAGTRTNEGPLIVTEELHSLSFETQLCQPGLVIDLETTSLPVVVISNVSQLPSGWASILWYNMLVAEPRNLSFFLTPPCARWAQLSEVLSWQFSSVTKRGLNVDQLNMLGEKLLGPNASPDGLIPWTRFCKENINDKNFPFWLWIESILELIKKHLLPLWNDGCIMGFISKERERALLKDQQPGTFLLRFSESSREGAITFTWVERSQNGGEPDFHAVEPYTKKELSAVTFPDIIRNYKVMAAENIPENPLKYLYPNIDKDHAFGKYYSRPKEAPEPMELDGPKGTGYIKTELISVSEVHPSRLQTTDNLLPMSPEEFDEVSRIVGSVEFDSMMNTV

[3] = tested on: ERBB2

Sequence of STAT3 (P40763 whole entry, species assumed): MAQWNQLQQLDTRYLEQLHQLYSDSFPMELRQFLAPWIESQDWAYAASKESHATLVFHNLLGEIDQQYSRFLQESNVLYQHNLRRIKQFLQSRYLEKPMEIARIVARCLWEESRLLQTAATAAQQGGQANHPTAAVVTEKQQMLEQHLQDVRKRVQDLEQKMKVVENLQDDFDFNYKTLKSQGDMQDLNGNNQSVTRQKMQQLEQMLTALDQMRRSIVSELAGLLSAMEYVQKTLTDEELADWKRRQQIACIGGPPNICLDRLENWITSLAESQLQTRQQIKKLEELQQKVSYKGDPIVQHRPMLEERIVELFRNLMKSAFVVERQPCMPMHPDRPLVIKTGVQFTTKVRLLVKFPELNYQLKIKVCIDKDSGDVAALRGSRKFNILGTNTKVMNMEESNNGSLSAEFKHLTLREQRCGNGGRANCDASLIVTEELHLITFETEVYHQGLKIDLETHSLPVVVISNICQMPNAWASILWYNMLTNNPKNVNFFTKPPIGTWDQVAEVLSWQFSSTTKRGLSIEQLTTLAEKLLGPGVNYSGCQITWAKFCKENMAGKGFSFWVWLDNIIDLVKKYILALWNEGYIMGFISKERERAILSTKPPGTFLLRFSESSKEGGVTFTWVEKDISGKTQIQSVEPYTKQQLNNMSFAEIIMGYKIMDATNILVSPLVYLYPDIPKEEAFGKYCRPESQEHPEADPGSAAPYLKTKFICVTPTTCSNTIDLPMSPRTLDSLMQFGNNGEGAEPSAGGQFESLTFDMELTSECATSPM

Row | pIC50 [1] | selectivity for STAT3 over STAT1 [2] | Compound | inhibition of ERBB2 phosphorylation (T7981) [3]
1 | 5.29 | highly selectivity over STAT1 | O=[N+]([O-])c1ccc2c(c1)S(=O)(=O)C=C2 [Stattic] | 
2 |  |  | C=CC(=O)Nc1cccc(Sc2nc(Nc3ccc(N4CCN(C)CC4)cc3)ncc2Cl)c1 [WZ8040] | does not inhibit
